Measured values: patent US20240150293A1, “SPIROCYCLOHEXANE DERIVATIVES, PHARMACEUTICAL COMPOSITIONS CONTAINING THEM AND THEIR USES AS ANTI-APOPTOTIC INHIBITORS” (LES LABORATOIRES SERVIER, priority 2021, published 2024)

Each molecule was assayed against Mcl-1 protein (UniProtKB Q07820) (Homo sapiens (Human), UniProt Q07820) (assay: Inhibition of Mcl-1 by the fluorescence polarisation assay (Example A, Method A)). Conditions: fluorescence polarization assay.
Type: binding
Method in brief: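 Protein (5 nM) and fluorescein-tagged peptide tracer (1 nM) incubated with 11-point compound series for 2 h at room temperature in HEPES/NaCl/Tween 20 buffer, pH 7.4, 5% DMSO. Displacement read as decrease in polarisation; IC50 fitted by 4-parameter logistic, converted to Ki (cKi or eKi).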

Chain of Mcl-1 protein (Q07820 whole entry): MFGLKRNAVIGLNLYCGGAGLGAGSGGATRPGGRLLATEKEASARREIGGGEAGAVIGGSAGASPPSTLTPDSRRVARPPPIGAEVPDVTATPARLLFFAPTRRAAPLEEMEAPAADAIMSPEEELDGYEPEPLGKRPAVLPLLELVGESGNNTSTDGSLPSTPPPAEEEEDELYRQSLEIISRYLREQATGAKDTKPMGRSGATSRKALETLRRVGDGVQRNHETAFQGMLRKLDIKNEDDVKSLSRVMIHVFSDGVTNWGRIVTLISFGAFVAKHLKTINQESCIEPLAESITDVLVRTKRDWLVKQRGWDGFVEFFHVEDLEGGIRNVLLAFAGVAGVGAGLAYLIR

| Ki | SMILES |
| --- | --- |
| 57.6 nM | CC(O)c1ccc2c(c1)[C@]1(CC[C@@](Nc3cccc(Cl)c3)(C(=O)O)CC1)C(Br)=C2 (stereo partly shown) [Example 133, (1s,4s)-2′-bromo-4-(3-chloroanilino)-6′-(1-hydroxyethyl)spiro[cyclohexane-1,1′-indene]-4-carboxylic acid] |
| 265 nM | O=C(O)[C@]1(Nc2cccc(Cl)c2)CC[C@]2(CC1)C(Br)=Cc1ccc(Cl)cc12 [Example 134, (1s,4s)-2′-bromo-6′-chloro-4-(3-chloroanilino)spiro[cyclohexane-1,1′-indene]-4-carboxylic acid] |
| 200 nM | O=C(O)[C@]1(Nc2cccc(Cl)c2)CC[C@]2(CC1)C(Br)=Cc1cc(Cl)ccc12 [Example 135, (1s,4s)-2′-bromo-5′-chloro-4-(3-chloroanilino)spiro[cyclohexane-1,1′-indene]-4-carboxylic acid] |
| 259 nM | COc1cc2c(cc1OC)[C@]1(CC[C@@](Nc3cccc(Cl)c3)(C(=O)O)CC1)C(Br)=C2 [Example 136, (1s,4s)-2′-bromo-4-(3-chloroanilino)-5′,6′-dimethoxyspiro[cyclohexane-1,1′-indene]-4-carboxylic acid] |
| 192 nM | O=C(O)[C@]1(Nc2cccc(Cl)c2)CC[C@]2(CC1)C(Br)=Cc1c(Cl)cccc12 [Example 137, (1s,4s)-2′-bromo-4′-chloro-4-(3-chloroanilino)spiro[cyclohexane-1,1′-indene]-4-carboxylic acid] |
| 219 nM | O=C(O)[C@]1(Nc2cccc(Cl)c2)CC[C@]2(CC1)C(Br)=Cc1cc(F)ccc12 [Example 138, (1s,4s)-2′-bromo-4-(3-chloroanilino)-5′-fluorospiro[cyclohexane-1,1′-indene]-4-carboxylic acid] |
| 265 nM | O=C(O)[C@]1(Nc2cccc(Cl)c2)CC[C@]2(CC1)C(Br)=Cc1ccc(F)cc12 [Example 139, (1s,4s)-2′-bromo-4-(3-chloroanilino)-6′-fluorospiro[cyclohexane-1,1′-indene]-4-carboxylic acid] |
| 261 nM | CC1=Cc2ccccc2[C@]12CC[C@@](Nc1cccc(Br)c1)(C(=O)O)CC2 [Example 142, (1r,4r)-4-(3-bromoanilino)-2′-methylspiro[cyclohexane-1,1′-indene]-4-carboxylic acid] |
| 182 nM | CC1=Cc2ccccc2[C@]12CC[C@@](Nc1cccc(Cl)c1)(C(=O)O)CC2 [Example 143, (1r,4r)-4-(3-chloroanilino)-2′-methylspiro[cyclohexane-1,1′-indene]-4-carboxylic acid] |
| 233 nM | C/C=C/C1=Cc2ccccc2[C@]12CC[C@@](Nc1cccc(Cl)c1)(C(=O)O)CC2 [Example 159, (1r,4r)-4-(3-chloroanilino)-2′-[(1E)-prop-1-en-1-yl]spiro[cyclohexane-1,1′-indene]-4-carboxylic acid] |

The next lines start with the molecule.

| SMILES | Ki |
| --- | --- |
| CCC1=Cc2ccccc2[C@]12CC[C@](Nc1cccc(Br)c1)(C(=O)O)CC2 [Example 146, (1s,4s)-4-(3-bromoanilino)-2′-ethylspiro[cyclohexane-1,1′-indene]-4-carboxylic acid] | 6920 nM |
| CCCC1Cc2ccccc2[C@]12CC[C@@](Nc1cccc(Br)c1)(C(=O)O)CC2 (stereo partly shown) [Example 148, (1r,4r)-4-(3-bromoanilino)-2′-propyl-2′,3′-dihydrospiro[cyclohexane-1,1′-indene]-4-carboxylic acid] | 258 nM |
| O=C(O)[C@]1(Nc2cccc(Br)c2)CC[C@@]2(CC1)C(CCCc1ccccc1)=Cc1ccccc12 [Example 149, (1s,4s)-4-(3-bromoanilino)-2′-(3-phenylpropyl)spiro[cyclohexane-1,1′-indene]-4-carboxylic acid] | 63300 nM |
| O=C(O)[C@]1(Nc2cccc(Cl)c2)CC[C@]2(CC1)C(/C=C/CC1CCCC1)=Cc1ccccc12 [Example 152, (1r,4r)-4-(3-chloroanilino)-2′-[(1E)-3-cyclopentylprop-1-en-1-yl]spiro[cyclohexane-1,1′-indene]-4-carboxylic acid] | 609 nM |
| O=C(O)[C@]1(Nc2cccc(Cl)c2)CC[C@@]2(CC1)c1ccccc1CC2CCCC1CCCC1 (stereo partly shown) [Example 153, (1r,4r)-4-(3-chloroanilino)-2′-(3-cyclopentylpropyl)-2′,3′-dihydrospiro[cyclohexane-1,1′-indene]-4-carboxylic acid] | 507 nM |
| CCOC/C=C/C1=Cc2ccccc2[C@]12CC[C@@](Nc1cccc(Cl)c1)(C(=O)O)CC2 [Example 154, (1r,4r)-4-(3-chloroanilino)-2′-[(1E)-3-ethoxyprop-1-en-1-yl]spiro[cyclohexane-1,1′-indene]-4-carboxylic acid] | 162 nM |
| COc1ccc(CCCC2=Cc3ccccc3[C@]23CC[C@@](Nc2cccc(Cl)c2)(C(=O)O)CC3)cc1 [Example 155, (1r,4r)-4-(3-chloroanilino)-2′-[3-(4-methoxyphenyl)propyl]spiro[cyclohexane-1,1′-indene]-4-carboxylic acid] | 710 nM |
| CCOCCCC1Cc2ccccc2[C@]12CC[C@@](Nc1cccc(Cl)c1)(C(=O)O)CC2 (stereo partly shown) [Example 156, (1r,4r)-4-(3-chloroanilino)-2′-(3-ethoxypropyl)-2′,3′-dihydrospiro[cyclohexane-1,1′-indene]-4-carboxylic acid] | 621 nM |
| O=C(O)[C@]1(Nc2cccc(Cl)c2)CC[C@]2(CC1)C(CCCc1ccc(Cl)cc1)=Cc1ccccc12 [Example 157, (1r,4r)-4-(3-chloroanilino)-2′-[3-(4-chlorophenyl)propyl]spiro[cyclohexane-1,1′-indene]-4-carboxylic acid] | 846 nM |
| O=C(O)[C@]1(Nc2cccc(Cl)c2)CC[C@]2(CC1)C(/C=C/c1ccc(-c3ccccc3)cc1)=Cc1ccccc12 [Example 158, (1r,4r)-2′-[(E)-2-([1,1′-biphenyl]-4-yl)ethenyl]-4-(3-chloroanilino)spiro[cyclohexane-1,1′-indene]-4-carboxylic acid] | 311 nM |
| O=C(O)[C@]1(Nc2cccc(Cl)c2)CC[C@]2(CC1)C(CCCCOc1ccccc1)=Cc1ccccc12 [Example 160, (1r,4r)-4-(3-chloroanilino)-2′-(4-phenoxybutyl)spiro[cyclohexane-1,1′-indene]-4-carboxylic acid] | 768 nM |
| COc1ccc(CCCC2Cc3ccccc3[C@]23CC[C@@](Nc2cccc(Cl)c2)(C(=O)O)CC3)cc1 (stereo partly shown) [Example 161, (1r,4r)-4-(3-chloroanilino)-2′-[3-(4-methoxyphenyl)propyl]-2′,3′-dihydrospiro[cyclohexane-1,1′-indene]-4-carboxylic acid] | 447 nM |
| O=C(O)[C@]1(Nc2cccc(Cl)c2)CC[C@@]2(CC1)c1ccccc1CC2CCCc1ccc(Cl)cc1 (stereo partly shown) [Example 162, (1r,4r)-4-(3-chloroanilino)-2′-[3-(4-chlorophenyl)propyl]-2′,3′-dihydrospiro[cyclohexane-1,1′-indene]-4-carboxylic acid] | 558 nM |
| O=C(O)[C@]1(Nc2cccc(Br)c2)CC[C@@]2(CC1)c1ccccc1CC2CCc1cccc2[nH]ccc12 (stereo partly shown) [Example 163, (1r,4r)-4-(3-bromoanilino)-2′-[2-(1H-indol-4-yl)ethyl]-2′,3′-dihydrospiro[cyclohexane-1,1′-indene]-4-carboxylic acid] | 679 nM |
| O=C(O)[C@]1(Nc2cccc(Br)c2)CC[C@@]2(CC1)c1ccccc1CC2CCc1cccnc1 (stereo partly shown) [Example 164, (1r,4r)-4-(3-bromoanilino)-2′-[2-(pyridin-3-yl)ethyl]-2′,3′-dihydrospiro[cyclohexane-1,1′-indene]-4-carboxylic acid] | 600 nM |
